Data reported in US20260027116A1, “Methods of Treating Chronic Graft-Versus-Host Disease Following Allogeneic Hematopoietic Stem Cell Transplantation” (Kadmon Corporation, LLC, priority 2022, published 2026).

System: patients with cGVHD
Settings: Cohort 1 200 mg QD

In the case of CC(C)NC(=O)COc1cccc(-c2nc(Nc3ccc4[nH]ncc4c3)c3ccccc3n2)c1 [Belumosudil, 2-{3-[4-(1H-indazol-5-ylamino)-2-quinazolinyl]phenoxy}-N-(propan-2-yl) acetamide], the “Grade ≥3 Lung infection or pneumonia, No. (%)” value is reported as 1 (6), the “Graft versus host disease in gastrointestinal tract: # Events” value is reported as 1 and the “Graft versus host disease in gastrointestinal tract: Affected/At Risk (%)” value is reported as 1/17 (5.88%). The “Gynaecomastia: # Events” value was 0, the “Gynaecomastia: Affected/At Risk (%)” value was 0/17 (0%) and the “Haematuria: # Events” value was 1. The “Haematuria: Affected/At Risk (%)” value was 1/17 (5.88%), the “Hair growth abnormal: # Events” value was 1 and the “Hair growth abnormal: Affected/At Risk (%)” value was 1/17 (5.88%). For the same compound, the “Headache: # Events” value was 4, the “Headache: Affected/At Risk (%)” value was 4/17 (23.53%) and the “Hodgkin's disease recurrent: # Events” value was 1. For the same compound, the “Hodgkin's disease recurrent: Affected/At Risk (%)” value was 1/17 (5.88%), the “Hordeolum: # Events” value was 1 and the “Hordeolum: Affected/At Risk (%)” value was 1/17 (5.88%). The “Hot flush: # Events” value was 1, the “Hot flush: Affected/At Risk (%)” value was 1/17 (5.88%) and the “Hyperglycemia: # Events” value was 2. The “Hyperglycemia: Affected/At Risk (%)” value was 2/17 (11.76%), the “Hyperhidrosis: # Events” value was 0 and the “Hyperhidrosis: Affected/At Risk (%)” value was 0/17 (0%). The “Hyperkalaemia: # Events” value was 7, the “Hyperkalaemia: Affected/At Risk (%)” value was 3/17 (17.65%) and the “Hypertension: # Events” value was 8. For the same compound, the “Hypertension: Affected/At Risk (%)” value was 5/17 (29.41%), the “Hyperthyroidism: # Events” value was 0 and the “Hyperthyroidism: Affected/At Risk (%)” value was 0/17 (0%). The “Hypertriglyceridaemia: # Events” value was 0, the “Hypertriglyceridaemia: Affected/At Risk (%)” value was 0/17 (0%) and the “Hyperuricaemia: # Events” value was 6. The “Hyperuricaemia: Affected/At Risk (%)” value was 1/17 (5.88%), the “Hypoaesthesia: # Events” value was 2 and the “Hypoaesthesia: Affected/At Risk (%)” value was 1/17 (5.88%). The “Hypocalcaemia: # Events” value was 0, the “Hypocalcaemia: Affected/At Risk (%)” value was 0/17 (0%) and the “Hypogonadism: # Events” value was 1. For the same compound, the “Hypogonadism: Affected/At Risk (%)” value was 1/17 (5.88%), the “Hypokalaemia: # Events” value was 1 and the “Hypokalaemia: Affected/At Risk (%)” value was 1/17 (5.88%). The “Hypomagnesaemia: # Events” value was 1, the “Hypomagnesaemia: Affected/At Risk (%)” value was 1/17 (5.88%) and the “Hyponatraemia: # Events” value was 1. The “Hyponatraemia: Affected/At Risk (%)” value was 1/17 (5.88%), the “Hypophosphataemia: # Events” value was 1 and the “Hypophosphataemia: Affected/At Risk (%)” value was 1/17 (5.88%). The “Hypothermia: # Events” value was 0, the “Hypothermia: Affected/At Risk (%)” value was 0/17 (0%) and the “Hypothyroidism: # Events” value was 2. For the same compound, the “Hypothyroidism: Affected/At Risk (%)” value was 1/17 (5.88%), the “Hypoxia: # Events” value was 1 and the “Hypoxia: Affected/At Risk (%)” value was 1/17 (5.88%). For the same compound, the “Impaired healing: # Events” value was 1, the “Impaired healing: Affected/At Risk (%)” value was 1/17 (5.88%) and the “Influenza like illness: # Events” value was 1. For the same compound, the “Influenza like illness: Affected/At Risk (%)” value was 1/17 (5.88%), the “Influenza: # Events” value was 2 and the “Influenza: Affected/At Risk (%)” value was 2/17 (11.76%). For the same compound, the “Insomnia: # Events” value was 0, the “Insomnia: Affected/At Risk (%)” value was 0/17 (0%) and the “Irritability: # Events” value was 1. The “Irritability: Affected/At Risk (%)” value was 1/17 (5.88%), the “Joint range of motion decreased: # Events” value was 0 and the “Joint range of motion decreased: Affected/At Risk (%)” value was 0/17 (0%). For the same compound, the “Lacrimation increased: # Events” value was 0, the “Lacrimation increased: Affected/At Risk (%)” value was 0/17 (0%) and the “Leukaemia recurrent: # Events” value was 1. The “Leukaemia recurrent: Affected/At Risk (%)” value was 1/17 (5.88%), the “Leukocytosis: # Events” value was 1 and the “Leukocytosis: Affected/At Risk (%)” value was 1/17 (5.88%). The “Ligament sprain: # Events” value was 1, the “Ligament sprain: Affected/At Risk (%)” value was 1/17 (5.88%) and the “Limb injury: # Events” value was 1. For the same compound, the “Limb injury: Affected/At Risk (%)” value was 1/17 (5.88%), the “Macular degeneration: # Events” value was 0 and the “Macular degeneration: Affected/At Risk (%)” value was 0/17 (0%). For the same compound, the “Migraine: # Events” value was 0, the “Migraine: Affected/At Risk (%)” value was 0/17 (0%) and the “Muscle spasms: # Events” value was 1. For the same compound, the “Muscle spasms: Affected/At Risk (%)” value was 1/17 (5.88%), the “Muscle spasticity: # Events” value was 1 and the “Muscle spasticity: Affected/At Risk (%)” value was 1/17 (5.88%). The “Muscular weakness: # Events” value was 6, the “Muscular weakness: Affected/At Risk (%)” value was 4/17 (23.53%) and the “Musculoskeletal chest pain: # Events” value was 1. For the same compound, the “Musculoskeletal chest pain: Affected/At Risk (%)” value was 1/17 (5.88%), the “Myalgia: # Events” value was 2 and the “Myalgia: Affected/At Risk (%)” value was 1/17 (5.88%). For the same compound, the “Nail disorder: # Events” value was 1, the “Nail disorder: Affected/At Risk (%)” value was 1/17 (5.88%) and the “Nasal congestion: # Events” value was 3. For the same compound, the “Nasal congestion: Affected/At Risk (%)” value was 3/17 (17.65%), the “Nausea: # Events” value was 10 and the “Nausea: Affected/At Risk (%)” value was 6/17 (35.29%). For the same compound, the “Neck pain: # Events” value was 1, the “Neck pain: Affected/At Risk (%)” value was 1/17 (5.88%) and the “Nephrotic syndrome: # Events” value was 1. For the same compound, the “Nephrotic syndrome: Affected/At Risk (%)” value was 1/17 (5.88%), the “Neuropathy peripheral: # Events” value was 0 and the “Neuropathy peripheral: Affected/At Risk (%)” value was 0/17 (0%). For the same compound, the “Neutrophil count decreased: # Events” value was 1, the “Neutrophil count decreased: Affected/At Risk (%)” value was 1/17 (5.88%) and the “Nocturia: # Events” value was 1. For the same compound, the “Nocturia: Affected/At Risk (%)” value was 1/17 (5.88%), the “Non-cardiac chest pain: # Events” value was 0 and the “Non-cardiac chest pain: Affected/At Risk (%)” value was 0/17 (0%). For the same compound, the “Obesity: # Events” value was 2, the “Obesity: Affected/At Risk (%)” value was 2/17 (11.76%) and the “Oedema peripheral: # Events” value was 3. For the same compound, the “Oedema peripheral: Affected/At Risk (%)” value was 3/17 (17.65%), the “Oedema: # Events” value was 0 and the “Oedema: Affected/At Risk (%)” value was 0/17 (0%). For the same compound, the “Oesophageal ulcer: # Events” value was 0, the “Oesophageal ulcer: Affected/At Risk (%)” value was 0/17 (0%) and the “Oral candidiasis: # Events” value was 3. The “Oral candidiasis: Affected/At Risk (%)” value was 2/17 (11.76%), the “Oropharyngeal pain: # Events” value was 1 and the “Oropharyngeal pain: Affected/At Risk (%)” value was 1/17 (5.88%). For the same compound, the “Orthopnoea: # Events” value was 1, the “Orthopnoea: Affected/At Risk (%)” value was 1/17 (5.88%) and the “Osteonecrosis: # Events” value was 1. The “Osteonecrosis: Affected/At Risk (%)” value was 1/17 (5.88%), the “Osteopenia: # Events” value was 0 and the “Osteopenia: Affected/At Risk (%)” value was 0/17 (0%). The “Osteoporosis: # Events” value was 0, the “Osteoporosis: Affected/At Risk (%)” value was 0/17 (0%) and the “Overdose: # Events” value was 1. The “Overdose: Affected/At Risk (%)” value was 1/17 (5.88%), the “Pain in extremity: # Events” value was 2 and the “Pain in extremity: Affected/At Risk (%)” value was 2/17 (11.76%). The “Pain: # Events” value was 3, the “Pain: Affected/At Risk (%)” value was 3/17 (17.65%) and the “Palpitations: # Events” value was 1. For the same compound, the “Palpitations: Affected/At Risk (%)” value was 1/17 (5.88%), the “Paraesthesia: # Events” value was 0 and the “Paraesthesia: Affected/At Risk (%)” value was 0/17 (0%). For the same compound, the “Pericardial effusion: # Events” value was 1, the “Pericardial effusion: Affected/At Risk (%)” value was 1/17 (5.88%) and the “Peripheral coldness: # Events” value was 1. For the same compound, the “Peripheral coldness: Affected/At Risk (%)” value was 1/17 (5.88%), the “Peripheral sensory neuropathy: # Events” value was 0 and the “Peripheral sensory neuropathy: Affected/At Risk (%)” value was 0/17 (0%). For the same compound, the “Phlebitis: # Events” value was 0, the “Phlebitis: Affected/At Risk (%)” value was 0/17 (0%) and the “Photophobia: # Events” value was 0. For the same compound, the “Photophobia: Affected/At Risk (%)” value was 0/17 (0%), the “Platelet count decreased: # Events” value was 3 and the “Platelet count decreased: Affected/At Risk (%)” value was 1/17 (5.88%). The “Pleural effusion: # Events” value was 1, the “Pleural effusion: Affected/At Risk (%)” value was 1/17 (5.88%) and the “Pneumonia respiratory syncytial viral: # Events” value was 0. The “Pneumonia respiratory syncytial viral: Affected/At Risk (%)” value was 0/17 (0%), the “Pneumonia: # Events” value was 2 and the “Pneumonia: Affected/At Risk (%)” value was 1/17 (5.88%). The “Pollakiuria: # Events” value was 1, the “Pollakiuria: Affected/At Risk (%)” value was 1/17 (5.88%) and the “Presyncope: # Events” value was 0. For the same compound, the “Presyncope: Affected/At Risk (%)” value was 0/17 (0%), the “Productive cough: # Events” value was 2 and the “Productive cough: Affected/At Risk (%)” value was 2/17 (11.76%). For the same compound, the “Proteinuria: # Events” value was 2, the “Proteinuria: Affected/At Risk (%)” value was 2/17 (11.76%) and the “Pruritus: # Events” value was 1. For the same compound, the “Pruritus: Affected/At Risk (%)” value was 1/17 (5.88%), the “Pseudomonas infection: # Events” value was 1 and the “Pseudomonas infection: Affected/At Risk (%)” value was 1/17 (5.88%). The “Pulmonary mass: # Events” value was 0, the “Pulmonary mass: Affected/At Risk (%)” value was 0/17 (0%) and the “Pyrexia: # Events” value was 3. For the same compound, the “Pyrexia: Affected/At Risk (%)” value was 1/17 (5.88%).
